Data on four compounds can be found in patent US11618909B2, “Acid-tolerant Saccharomyces cerevisiae and use thereof” (JIANGNAN UNIVERSITY, priority 2020, dated 2023).

This experiment relates to mutant MTPfo-4. Description: Tolerance to other acids by OD600, mutant MTPfo-4. The class given is cell-based, Saccharomyces cerevisiae. Particulars: pH 2.44, OD600 over 72 h. The protocol: To analyze the tolerance of the mutant MTPfo-4 to other acids, 10 acids, including 2 inorganic acids of HCl and H3PO4, and 8 organic acids of lactic acid, malic acid, fumaric acid, succinate acid, tartaric acid, furoic acid, gluconic acid, and citric acid, were added exogenously in the present invention to analyze the acid tolerance of cells. The initial pH was controlled to 2.44. The cells were sampled every 12 h for consecutive 72 h. The acid tolerance of cells was analyzed by determining the OD600. […] The cells were sampled every 12 h for consecutive 72 h. The acid resistance of the cells was analyzed again by determining the OD600.
Regarding `O=C(O)/C=C/C(=O)O` [fumaric acid], the “effect of the acid on the mutant MTPfo-4” value is recorded as “inhibitory effect”.
Consider `O=C(O)c1ccco1` [furoic acid], for which the “effect of the acid on the mutant MTPfo-4” value is given as “inhibitory effect”.
The entry for `O=C(O)CCC(=O)O` [succinic acid] is “inhibitory effect”; for `O=C(O)C(O)C(O)C(=O)O` (stereo not shown) [tartaric acid] it is “inhibitory effect”.
